In ChEMBL document CHEMBL3853351, “Discovery of O6-benzyl glaziovianin A, a potent cytotoxic substance and a potent inhibitor of α,β-tubulin polymerization” (Bioorg Med Chem, 2016):
Values joined by “and” are separate entries in the source; they are usually repeats but may differ in a detail not shown here. Identical values can stand only once. Active and inactive are the calls of the source. No cut-off for these calls is given here.

Experiments:
[1] = Inhibition of alpha-[32P]-GTP binding to human gamma-tubulin preincubated for 15 mins followed by alpha-[32P]-GTP addition measured after 30 mins
[2] = Cytotoxicity against human HeLa cells assessed as reduction in cell growth measured after 48 hrs by WST-8 assay; format: functional, cell-based
[3] = Binding affinity to porcine alpha/beta tubulin assessed as decrease in tryptophan fluorescence measured after 30 mins by tryptophan fluorescence assay; parameters: species or system Sus scrofa
Sus scrofa [4] = organism: Sus scrofa; test: Inhibition of [3H]vinblastine binding to microtubule associated proteins free porcine brain alpha/beta-tubulin assessed as remaining radiolabeled binding at 100 uM measured after 5 mins by centrifugal gel filtration method relative to control
Sus scrofa [5] = organism: Sus scrofa; test: Inhibition of [3H]colchicine binding to microtubule associated proteins free porcine brain alpha/beta-tubulin assessed as remaining radiolabeled binding at 100 uM measured after 5 mins by centrifugal gel filtration method relative to control
HeLa [6] = test: Inhibition of bipolar spindle formation in human HeLa cells at 1 uM measured after 6 hrs by DAPI staining-based fluorescence microscopic analysis; format: functional, cell-based
HeLa [7] = test: Inhibition of bipolar spindle formation in human HeLa cells at 100 and 300 nM measured after 6 hrs by DAPI staining-based fluorescence microscopic analysis; format: functional, cell-based
Sus scrofa [8] = organism: Sus scrofa; test: Inhibition of microtubule associated proteins free porcine brain alpha/beta-tubulin polymerization at 3 uM measured after 10 mins by thermostatic spectrophotometric method
HeLa [9] = test: Mitotic arrest in human HeLa cells at 100 nM measured after 18 hrs by propidium iodide-staining based flow cytometry; format: functional, cell-based
Homo sapiens = organism: Homo sapiens; test: Inhibition of alpha-[32P]-GTP binding to human gamma-tubulin at 60 uM preincubated for 15 mins followed by alpha-[32P]-GTP addition measured after 30 mins relative to control
[10] = Inhibition of microtubule associated proteins free porcine brain alpha/beta-tubulin polymerization measured after 10 mins by thermostatic spectrophotometric method; parameters: species or system Sus scrofa

Row | Compound | Activity (Sus scrofa [4]) [%] | Activity (Sus scrofa [5]) [%] | inhibition (Homo sapiens) [%] | IC50 [2] [nM] | Kd [3] [nM] | further results
1 | C#CCOc1cc2occ(-c3cc(OC)c4c(c3OC)OCO4)c(=O)c2cc1OC |  |  |  |  |  | IC50 [1]: 450 nM and 170 nM
2 | COc1cc2c(c(OC)c1OC)-c1ccc(OC)c(=O)cc1[C@@H](NC(C)=O)CC2 [COLCHICINE] |  |  |  | 20 | 26600 | 
3 | CC[C@]1(O)C[C@@H]2CN(CCc3c([nH]c4ccccc34)[C@@](C(=O)OC)(c3cc4c(cc3OC)N(C)[C@H]3[C@@](O)(C(=O)OC)[C@H](OC(C)=O)[C@]5(CC)C=CCN6CC[C@]43[C@@H]65)C2)C1 | 5.3 | 127 |  |  |  | 
4 | COc1cc2occ(-c3cc(OC)c4c(c3OC)OCO4)c(=O)c2cc1OC [GLAZIOVIANIN A] | 112 | 67.8 |  | 610 | 80000 | inhibition (HeLa [6]): Active

The next lines start with results.

Row | Activity (Sus scrofa [4]) [%] | Activity (Sus scrofa [5]) [%] | inhibition (Homo sapiens) [%] | Compound | IC50 [2] [nM] | Kd [3] [nM] | further results
5 | 118 | 20.3 | 89.6 | COc1cc2occ(-c3cc(OC)c4c(c3OC)OCO4)c(=O)c2cc1OCc1ccccc1 | 70 | 1000 | inhibition (HeLa [7]): Active; inhibition (Sus scrofa [8]): Active; Activity (HeLa [9]): Active; IC50 [10]: 2100 nM
6 |  |  | 93.3 | COc1cc2c(=O)c(-c3cc(OC)c4c(c3OC)OCO4)coc2cc1OCc1ccccc1 | 12800 |  | 
